Test results taken from BindingDB's records for doi:10.1021/acs.biochem.5b00822 (The University of Kansas Medical Center, 2015).
Several values for one entry are separate records, joined by “and”; a condition that tells them apart may be missing. Equal entries are not always repeated.

How the values were obtained:
Conditions in all cases: 25 °C
[1] = target: T1, Phosphoenolpyruvate carboxykinase, cytosolic [GTP] (Rattus norvegicus, UniProt P07379); assay: PEPCK Assay (PEP to OAA-allosteric)
T1 sequence (P07379 whole entry): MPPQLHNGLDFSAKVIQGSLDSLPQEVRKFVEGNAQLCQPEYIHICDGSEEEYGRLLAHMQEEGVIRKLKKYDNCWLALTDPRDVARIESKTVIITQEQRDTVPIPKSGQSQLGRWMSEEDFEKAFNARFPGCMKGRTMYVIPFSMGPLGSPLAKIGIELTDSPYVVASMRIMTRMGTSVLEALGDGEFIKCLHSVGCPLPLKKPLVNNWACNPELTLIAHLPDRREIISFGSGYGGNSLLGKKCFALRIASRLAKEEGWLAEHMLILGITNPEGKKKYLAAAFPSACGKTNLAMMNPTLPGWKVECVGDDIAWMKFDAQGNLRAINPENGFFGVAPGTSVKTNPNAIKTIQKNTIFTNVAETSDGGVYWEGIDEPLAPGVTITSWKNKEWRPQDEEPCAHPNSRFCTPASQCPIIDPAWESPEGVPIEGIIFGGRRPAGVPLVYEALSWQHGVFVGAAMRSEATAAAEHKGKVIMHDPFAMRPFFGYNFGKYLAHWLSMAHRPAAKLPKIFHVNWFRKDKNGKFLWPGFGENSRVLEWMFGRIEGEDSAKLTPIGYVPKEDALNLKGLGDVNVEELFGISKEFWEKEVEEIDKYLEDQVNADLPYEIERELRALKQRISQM
Description: (§1) Allosteric binding site. When the enzyme was assayed in the direction of PEP →OAA, the standard reaction mixture contained 50 mM HEPES (pH 7.5), 2mMMnCl2, 10mMDTT, 0.5mMGDP, 2mMPEP, 187.5 μM NADH, 50 mM KHCO3, and 11 units of MDH. The reaction proceeded at 25 °C and was started with the addition of PEPCK (∼1−2 μg). Mutants were assayed as previously described with the exception that ~30 μg of enzyme was used to initiate the assay.14 Inhibition assays with MPA were conducted with varying concentrations of PEP with a fixed GDP concentration of 500 or 25 μM. Inhibition assays against GDP were conducted at a fixed concentration of PEP of 2 or 5 mM.

[2] = target: T1, Phosphoenolpyruvate carboxykinase, cytosolic [GTP]; assay: PEPCK Assay (OAA to PEP)
Description: (§2) OAA/PEP binding site. The activity of PEPCK in the direction from OAA to PEP was assayed with 50 mM HEPES (pH 7.5), 10 mM DTT, 4 mM MgCl2, 0.5 mM GTP, 1 mM ADP, 187.5 μM NADH, 45 units of LDH, 50 μg of PK, 0.2 mM MnCl2, and (∼1−2 μg) of PEPCK. The assay mixture was incubated for 5 min at 25 °C and the reaction started with the addition of OAA to a final concentration of 350 μM. A second reaction without PEPCK was run simultaneously to account for the spontaneous decarboxylation of OAA. Inhibition assays with MPA were conducted under both variable OAA and variable GTP concentrations. When the GTP concentration was varied, MgCl2 concentrations were also varied to keep a constant 4:1 metal:nucleotide ratio.

[3] = target: T1, Phosphoenolpyruvate carboxykinase, cytosolic [GTP]; assay: PEPCK Assay (OAA to PEP-allosteric)
Description: as §2, with “Allosteric” for “OAA/PEP”

[4] = target: T1, Phosphoenolpyruvate carboxykinase, cytosolic [GTP]; assay: PEPCK Assay (PEP to OAA)
Description: as §1, with “OAA/PEP” for “Allosteric”

- Ki [1]: 180 µM and 83 µM
- Ki [2]: 45 µM
- Ki [3]: 121 µM
- Ki [4]: 83 µM and 37 µM
Structure (SMILES): O=C(O)c1ncccc1S [3-Mercaptopicolinic acid (MPA)]
